pIC50: −log10 of the molar value. Positions of bridges follow the written chain, without caps; N, C: chain ends. Non-standard residues stand in square brackets, D forms with d. Residues, ends and D or L forms follow the SMILES beside them. NMeF = CN[C@@H](Cc1ccccc1)C(=O)O
These molecules were tested against T1, human ROR1 (Homo sapiens, UniProt Q01973) (assay: ROR1 high content cell-based binding assay). Settings: 293T cells expressing human ROR1 (Tet-on, doxycycline); inhibition of binding of 5-FAM-labeled probe (Example 1300) at 30 nM; 1 hour at 37° C.; read-out: ROR1 Binding 293T Human HC Cell Based Assay IC50.
T1 construct: host or cells: HEK 293T cells, Tet-on system induced with doxycycline
Description: ROR1 high content cell-based binding assay: Human embryonic kidney 293T cells (293T) expressing human ROR1 with Tet-on system by doxycycline were used (Arctic-488134) for the assessment of inhibition of the binding of fluorescently-labeled competing peptide (“Probe”) that specifically binds to human ROR1. […] Cryopreserved vials were thawed in a 37° C. water bath. Cells were washed in assay culture media [DMEM (Life Technologies Inc. Cat. […] Cat. No. 15140-122) and […] dox] and diluted 1.0×10^5 cells/mL. Cells were seeded into PDL-coated 384 well plates (BD Falcon Cat. No. 356663) at 2,000 cells/20 μL. Plates were allowed to incubate for 10 minutes at room temperature and then transferred to a 37° C./5% CO2 incubator for overnight incubation. The next day, 125 nL of the test compound was added using an ECHO followed by the addition of 5 μL/well of 5-FAM-labeled probe to cells at a final concentration of 30 nM. Sample were incubated for 1 hour at 37° C. for 1 hour, followed by 3 washes in […] of dPBS. Cells were fixed by adding 8% (w/v) formaldehyde (Sigma Cat. No. 252549), 20 μg/mL Hoechst (Thermo Scientific Cat. No. 62249) in PBS for 20 minutes at room temperature. The plates were washed 3 more times in dPBS and 15 μl of PBS was left in the wells following the last wash. The plates were sealed, and data was using obtained using a CellInsight NXT High Content Screening Platform IC903000 (Thermo Scientific).

T1 sequence (Q01973 30-937): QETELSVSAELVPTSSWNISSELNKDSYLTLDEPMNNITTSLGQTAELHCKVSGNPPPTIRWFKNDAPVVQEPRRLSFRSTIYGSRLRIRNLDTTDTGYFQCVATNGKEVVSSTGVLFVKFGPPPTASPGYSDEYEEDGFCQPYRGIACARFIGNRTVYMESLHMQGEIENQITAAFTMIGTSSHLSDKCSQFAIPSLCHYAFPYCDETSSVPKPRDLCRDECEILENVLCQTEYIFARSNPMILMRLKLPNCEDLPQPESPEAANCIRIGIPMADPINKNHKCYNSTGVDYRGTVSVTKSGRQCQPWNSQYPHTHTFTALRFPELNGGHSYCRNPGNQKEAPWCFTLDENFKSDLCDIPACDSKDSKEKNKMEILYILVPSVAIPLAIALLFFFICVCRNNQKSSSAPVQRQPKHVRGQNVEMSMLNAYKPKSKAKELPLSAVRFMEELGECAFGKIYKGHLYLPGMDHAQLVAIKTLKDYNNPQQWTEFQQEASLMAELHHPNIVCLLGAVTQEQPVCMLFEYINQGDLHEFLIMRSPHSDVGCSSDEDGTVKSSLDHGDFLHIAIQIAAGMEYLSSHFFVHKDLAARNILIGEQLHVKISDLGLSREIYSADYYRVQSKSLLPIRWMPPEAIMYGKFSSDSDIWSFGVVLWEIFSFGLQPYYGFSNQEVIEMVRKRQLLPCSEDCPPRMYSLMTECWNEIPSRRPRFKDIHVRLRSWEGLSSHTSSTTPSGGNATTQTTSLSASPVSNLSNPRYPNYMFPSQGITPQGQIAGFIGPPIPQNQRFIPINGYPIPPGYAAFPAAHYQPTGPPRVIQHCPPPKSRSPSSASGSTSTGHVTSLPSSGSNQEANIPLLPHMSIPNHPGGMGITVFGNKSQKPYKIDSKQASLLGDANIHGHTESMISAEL

Row | pIC50 | Compound
1 | 8.00 | CC(C)C[C@@H]1NC(=O)[C@H](Cc2ccc(O)cc2)NC(=O)[C@H](Cc2ccccc2)NC(=O)CSC[C@@H](C(=O)NCC(N)=O)NC(=O)[C@H](CC(C)C)NC(=O)[C@H](Cc2ccccc2)N(C)C(=O)[C@H](Cc2ccc(O)cc2)NC(=O)[C@H](Cc2c[nH]c3ccccc23)NC(=O)CNC(=O)[C@H](CCC(=O)O)NC(=O)[C@H](Cc2ccc(O)cc2)NC(=O)[C@H](C(C)C)NC1=O [Example 1028] ({CH2CO}-FYLVYEGWY[NMeF]LCG-NH2; thioether N-12)

Same assay, conditions: read-out: ROR1 Binding 293T Human HC Cell Based Assay IC50

Row | pIC50 | Compound
2 | 7.57 | CC(C)C[C@@H]1NC(=O)[C@H](Cc2ccc(O)cc2)NC(=O)[C@H](Cc2ccccc2)NC(=O)CSC[C@@H](C(=O)NCC(N)=O)NC(=O)[C@H](CC(C)C)NC(=O)[C@H](Cc2ccccc2)N(C)C(=O)[C@H](Cc2ccc(O)cc2)NC(=O)[C@H](Cc2c[nH]c3ccccc23)NC(=O)CNC(=O)[C@H](CCCCN)NC(=O)[C@H](Cc2ccc(O)cc2)NC(=O)[C@H](C(C)C)NC1=O [Example 1019] ({CH2CO}-FYLVYKGWY[NMeF]LCG-NH2; thioether N-12)
3 | 7.74 | CC(C)C[C@@H]1NC(=O)[C@H](Cc2ccc(O)cc2)NC(=O)[C@H](Cc2ccccc2)NC(=O)CSC[C@@H](C(=O)NCC(N)=O)NC(=O)[C@H](CC(C)C)NC(=O)[C@H](Cc2ccccc2)N(C)C(=O)[C@H](Cc2ccc(O)cc2)NC(=O)[C@H](Cc2c[nH]c3ccccc23)NC(=O)CNC(=O)[C@H](C)NC(=O)[C@H](Cc2ccc(O)cc2)NC(=O)[C@H](C(C)C)NC1=O [Example 1020] ({CH2CO}-FYLVYAGWY[NMeF]LCG-NH2; thioether N-12)
4 | 8.30 | CC(C)C[C@@H]1NC(=O)[C@H](Cc2ccc(O)cc2)NC(=O)[C@H](Cc2ccccc2)NC(=O)CSC[C@@H](C(=O)NCC(N)=O)NC(=O)[C@H](CC(C)C)NC(=O)[C@H](Cc2ccccc2)N(C)C(=O)[C@H](Cc2ccc(O)cc2)NC(=O)[C@H](Cc2c[nH]c3ccccc23)NC(=O)CNC(=O)[C@H](CC(N)=O)NC(=O)[C@H](Cc2ccc(O)cc2)NC(=O)[C@H](C(C)C)NC1=O [Example 1021] ({CH2CO}-FYLVYNGWY[NMeF]LCG-NH2; thioether N-12)
5 | 7.47 | CC(C)C[C@@H]1NC(=O)[C@H](Cc2ccc(O)cc2)NC(=O)[C@H](Cc2ccccc2)NC(=O)CSC[C@@H](C(=O)NCC(N)=O)NC(=O)[C@H](CC(C)C)NC(=O)[C@H](Cc2ccccc2)N(C)C(=O)[C@H](Cc2ccc(O)cc2)NC(=O)[C@H](Cc2c[nH]c3ccccc23)NC(=O)CNC(=O)CNC(=O)[C@H](Cc2ccc(O)cc2)NC(=O)[C@H](C(C)C)NC1=O [Example 1022] ({CH2CO}-FYLVYGGWY[NMeF]LCG-NH2; thioether N-12)
6 | 7.10 | CC(C)C[C@@H]1NC(=O)[C@H](Cc2ccc(O)cc2)NC(=O)[C@H](Cc2ccccc2)NC(=O)CSC[C@@H](C(=O)NCC(N)=O)NC(=O)[C@H](CC(C)C)NC(=O)[C@H](Cc2ccccc2)N(C)C(=O)[C@H](Cc2ccc(O)cc2)NC(=O)[C@H](Cc2c[nH]c3ccccc23)NC(=O)CNC(=O)[C@H](CO)NC(=O)[C@H](CCCNC(=N)N)NC(=O)[C@H](C(C)C)NC1=O [Example 1023] ({CH2CO}-FYLVRSGWY[NMeF]LCG-NH2; thioether N-12)
7 | 6.21 | CC(C)C[C@@H]1NC(=O)[C@H](Cc2ccc(O)cc2)NC(=O)[C@H](Cc2ccccc2)NC(=O)CSC[C@@H](C(=O)NCC(N)=O)NC(=O)[C@H](CC(C)C)NC(=O)[C@H](Cc2ccccc2)N(C)C(=O)[C@H](Cc2ccc(O)cc2)NC(=O)[C@H](Cc2c[nH]c3ccccc23)NC(=O)CNC(=O)[C@H](CO)NC(=O)[C@H](CC(N)=O)NC(=O)[C@H](C(C)C)NC1=O [Example 1024] ({CH2CO}-FYLVNSGWY[NMeF]LCG-NH2; thioether N-12)
8 | 6.44 | CC(C)C[C@@H]1NC(=O)[C@H](Cc2ccc(O)cc2)NC(=O)[C@H](Cc2ccccc2)NC(=O)CSC[C@@H](C(=O)NCC(N)=O)NC(=O)[C@H](CC(C)C)NC(=O)[C@H](Cc2ccccc2)N(C)C(=O)[C@H](Cc2ccc(O)cc2)NC(=O)[C@H](Cc2c[nH]c3ccccc23)NC(=O)CNC(=O)[C@H](CO)NC(=O)CNC(=O)[C@H](C(C)C)NC1=O [Example 1025] ({CH2CO}-FYLVGSGWY[NMeF]LCG-NH2; thioether N-12)
9 | 7.23 | CC(C)C[C@@H]1NC(=O)[C@H](Cc2ccc(O)cc2)NC(=O)[C@H](Cc2ccccc2)NC(=O)CSC[C@@H](C(=O)NCC(N)=O)NC(=O)[C@H](CC(C)C)NC(=O)[C@H](Cc2ccccc2)N(C)C(=O)[C@H](Cc2ccc(O)cc2)NC(=O)[C@H](Cc2c[nH]c3ccccc23)NC(=O)CNC(=O)[C@H](CO)NC(=O)[C@H](CO)NC(=O)[C@H](C(C)C)NC1=O [Example 1026] ({CH2CO}-FYLVSSGWY[NMeF]LCG-NH2; thioether N-12)
10 | 6.06 | CC(C)C[C@@H]1NC(=O)[C@H](Cc2ccc(O)cc2)NC(=O)[C@H](Cc2ccccc2)NC(=O)CSC[C@@H](C(=O)NCC(N)=O)NC(=O)[C@H](CC(C)C)NC(=O)[C@H](Cc2ccccc2)N(C)C(=O)[C@H](Cc2ccc(O)cc2)NC(=O)[C@H](Cc2c[nH]c3ccccc23)NC(=O)CNC(=O)[C@H](CO)NC(=O)[C@H](C)NC(=O)[C@H](C(C)C)NC1=O [Example 1027] ({CH2CO}-FYLVASGWY[NMeF]LCG-NH2; thioether N-12)
11 | 6.59 | CC(C)C[C@@H]1NC(=O)[C@H](Cc2ccc(O)cc2)NC(=O)[C@H](Cc2ccccc2)NC(=O)CSC[C@@H](C(=O)NCC(N)=O)NC(=O)[C@H](CC(C)C)NC(=O)[C@H](Cc2ccccc2)N(C)C(=O)[C@H](Cc2ccc(O)cc2)NC(=O)[C@H](Cc2c[nH]c3ccccc23)NC(=O)CNC(=O)[C@H](CO)NC(=O)[C@H](CCCCN)NC(=O)[C@H](C(C)C)NC1=O [Example 1029] ({CH2CO}-FYLVKSGWY[NMeF]LCG-NH2; thioether N-12)
12 | 6.56 | CC(C)C[C@@H]1NC(=O)[C@H](Cc2ccc(O)cc2)NC(=O)[C@H](Cc2ccccc2)NC(=O)CSC[C@@H](C(=O)NCC(N)=O)NC(=O)[C@H](CC(C)C)NC(=O)[C@H](Cc2ccccc2)N(C)C(=O)[C@H](Cc2ccc(O)cc2)NC(=O)[C@H](Cc2c[nH]c3ccccc23)NC(=O)CNC(=O)[C@H](CO)NC(=O)[C@H](Cc2cnc[nH]2)NC(=O)[C@H](C(C)C)NC1=O [Example 1030] ({CH2CO}-FYLVHSGWY[NMeF]LCG-NH2; thioether N-12)
13 | 6.67 | CC(C)C[C@@H]1NC(=O)[C@H](Cc2ccc(O)cc2)NC(=O)[C@H](Cc2ccccc2)NC(=O)CSC[C@@H](C(=O)NCC(N)=O)NC(=O)[C@H](CC(C)C)NC(=O)[C@H](Cc2ccccc2)N(C)C(=O)[C@H](Cc2ccc(O)cc2)NC(=O)[C@H](Cc2c[nH]c3ccccc23)NC(=O)CNC(=O)[C@H](CO)NC(=O)[C@H](CCC(N)=O)NC(=O)[C@H](C(C)C)NC1=O [Example 1031] ({CH2CO}-FYLVQSGWY[NMeF]LCG-NH2; thioether N-12)
14 | 6.41 | CC(C)C[C@@H]1NC(=O)[C@H](Cc2ccc(O)cc2)NC(=O)[C@H](Cc2ccccc2)NC(=O)CSC[C@@H](C(=O)NCC(N)=O)NC(=O)[C@H](CC(C)C)NC(=O)[C@H](Cc2ccccc2)N(C)C(=O)[C@H](Cc2ccc(O)cc2)NC(=O)[C@H](Cc2c[nH]c3ccccc23)NC(=O)CNC(=O)CNC(=O)[C@H](CCCNC(=N)N)NC(=O)[C@H](C(C)C)NC1=O [Example 1032] ({CH2CO}-FYLVRGGWY[NMeF]LCG-NH2; thioether N-12)
15 | 6.11 | CC(C)C[C@@H]1NC(=O)[C@H](Cc2ccc(O)cc2)NC(=O)[C@H](Cc2ccccc2)NC(=O)CSC[C@@H](C(=O)NCC(N)=O)NC(=O)[C@H](CC(C)C)NC(=O)[C@H](Cc2ccccc2)N(C)C(=O)[C@H](Cc2ccc(O)cc2)NC(=O)[C@H](Cc2c[nH]c3ccccc23)NC(=O)CNC(=O)[C@H](CCCNC(=N)N)NC(=O)CNC(=O)[C@H](C(C)C)NC1=O [Example 1033] ({CH2CO}-FYLVGRGWY[NMeF]LCG-NH2; thioether N-12)
16 | 6.61 | CC(C)C[C@@H]1NC(=O)[C@H](Cc2ccc(O)cc2)NC(=O)[C@H](Cc2ccccc2)NC(=O)CSC[C@@H](C(=O)NCC(N)=O)NC(=O)[C@H](CC(C)C)NC(=O)[C@H](Cc2ccccc2)N(C)C(=O)[C@H](Cc2ccc(O)cc2)NC(=O)[C@H](Cc2c[nH]c3ccccc23)NC(=O)CNC(=O)[C@H](CO)NC(=O)[C@H](C(C)C)NC(=O)[C@H](C(C)C)NC1=O [Example 1034] ({CH2CO}-FYLVVSGWY[NMeF]LCG-NH2; thioether N-12)
17 | 7.23 | CC(C)C[C@@H]1NC(=O)[C@H](Cc2ccc(O)cc2)NC(=O)[C@H](Cc2ccccc2)NC(=O)CSC[C@@H](C(=O)NCC(N)=O)NC(=O)[C@H](CC(C)C)NC(=O)[C@H](Cc2ccccc2)N(C)C(=O)[C@H](Cc2ccc(O)cc2)NC(=O)[C@H](Cc2c[nH]c3ccccc23)NC(=O)CNC(=O)[C@H](CO)NC(=O)[C@H](Cc2ccccc2)NC(=O)[C@H](C(C)C)NC1=O [Example 1035] ({CH2CO}-FYLVFSGWY[NMeF]LCG-NH2; thioether N-12)

Reference: patent publication US20240116988A1, “ANTI-ROR1 MACROCYCLIC PEPTIDES AND COMPOSITIONS” (BRISTOL-MYERS SQUIBB COMPANY, priority 2022, published 2024)
